Laboratory results as given in patent publication US5922708A, “Heteroaryl-oxazolidinones” (Bayer Aktiengesellschaft, priority 1996, dated 1999).
Converted amounts (≈) assume the structure as drawn. Like-named read-outs stand apart in the source and are kept apart here.

Legend:
Format in all cases: cell-based
[1] = test system: Staph. 9TV; assay: MIC by serial dilution method on Iso-Sensitest agar
Experimental: (§1) The minimum inhibitory concentrations (MIC) were determined by the serial dilution method on Iso-Sensitest agar (Oxoid). For each test substance a series of agar plates were prepared which contained decreasing concentrations of the active substance, obtained by twofold dilution from one plate to the next. The agar plates were inoculated with a Multipoint inoculator (Denley). Inoculation was effected using overnight cultures of the pathogens which had been diluted beforehand so that each inoculation point contained ca. 10^4 colony forming particles. The inoculated agar plates were incubated at 37° C. and the bacterial growth was evaluated after ca. 20 hours. The MIC value (μg/ml) indicates the lowest active substance concentration at which no growth was detectable with the naked eye.

[2] = test system: Staph. 25701; assay: as above
Experimental: as §1

[3] = test system: Psdm. Bonn; assay: as above
Experimental: as §1

[4] = test system: Staph. 133; assay: as above
Experimental: as §1

[5] = test system: Staph. 48N; assay: as above
Experimental: as §1

[6] = test system: Klebs. 57 USA; assay: as above
Experimental: as §1

[7] = test system: E. coli Neumann; assay: as above; settings: Escherichia coli
Experimental: as §1

[8] = test system: Mycobacterium smegmatis DSM 43078; assay: MIC for rapidly growing mycobacteria, broth microdilution method; settings: Mycolicibacterium smegmatis, DSM43078, inoculum 4.20E + 04 [/ml], 37° C., 2-4 days
Experimental: For rapidly growing mycobacteria the MIC were determined on the basis of the broth microdilution method described by Swenson [cf. J. M. Swenson, C. Thomberry, U. A. Silcox, Rapidly growing mycobacteria. Testing of susceptibility to 34 antimicrobial agents by broth microdilution. Antimicrobial Agents and Chemotherapy, vol. 22, 186-192 (1982)]. The brain-heart extract medium treated with 0.1 vol.% of Tween 80 was an exception.
The mycobacterial strains used were obtained from the DSM (Deutsche Sammlung von Mikroorganismen (German Collection of Microorganisms), Brunswick). They were incubated in a moist chamber at 37° C.
The MIC values were evaluated after 2-4 days, when the preparation-free controls were opaque due to growth.

[9] = Staph. 9TV, agar, 37° C., ca. 20 hours, read-out: MIC
[10] = Staph. 25701, agar, 37° C., ca. 20 hours, read-out: MIC
[11] = Staph. 133, agar, 37° C., ca. 20 hours, read-out: MIC
[12] = Staph. 48N, agar, 37° C., ca. 20 hours, read-out: MIC
[13] = Klebs. 57 USA, agar, 37° C., ca. 20 hours, read-out: MIC
[14] = E. coli Neumann, agar, 37° C., ca. 20 hours, read-out: MIC

MIC ([3]; Psdm. Bonn, agar, 37° C., ca. 20 hours, read-out: MIC) [mg/L] | MIC [8] [mg/L] | Structure (SMILES) | MIC ([1]; 20 h) [mg/L] | MIC ([2]; 20 h) [mg/L] | MIC ([3]; 20 h) [mg/L] | MIC ([4]; 20 h) [mg/L] | MIC ([5]; 20 h) [mg/L] | MIC ([6]; 20 h) [mg/L] | MIC ([7]; 20 h) [mg/L] | MIC [1, 9] [mg/L] | MIC [2, 10] [mg/L] | MIC [4, 11] [mg/L] | MIC [5, 12] [mg/L] | MIC [6, 13] [mg/L] | MIC [7, 14] [mg/L]
– | – | O=C(CF)NC[C@H]1CN(c2ccc(-c3cccnc3)s2)C(=O)O1 [Example 18] | 1 (≈ 2.98 µM) | 4 (≈ 11.9 µM) | > 64 | 2 (≈ 5.96 µM) | 4 (≈ 11.9 µM) | > 64 | > 64 | – | – | – | – | – | –
> 64 | – | CCCOC(=O)NC[C@H]1CN(c2ccc(-c3cccnc3)s2)C(=O)O1 [Example 20] | – | – | – | – | – | – | – | 2 (≈ 5.53 µM) | 2 (≈ 5.53 µM) | 2 (≈ 5.53 µM) | 2 (≈ 5.53 µM) | > 64 | > 64
– | – | COC(=O)NC[C@H]1CN(c2ccc(Br)c(C)n2)C(=O)O1 [Example 25] | – | – | – | – | – | – | – | 1 (≈ 2.91 µM) | 2 (≈ 5.81 µM) | 2 (≈ 5.81 µM) | 2 (≈ 5.81 µM) | > 64 | > 64
– | 2 | NNC(=O)c1ccncc1 [Isoniazid] | – | – | – | – | – | – | – | – | – | – | – | – | –
